Patent US20260062412A1, “NITROGEN-CONTAINING HETEROCYCLIC COMPOUND HAVING MYT1 INHIBITORY ACTIVITY” (CHUGAI SEIYAKU KABUSHIKI KAISHA, priority 2023, published 2026)

Target: MYT1 protein (Homo sapiens (Human), UniProt Q99640)
Assay: Test for binding to ATP binding site of MYT1 (Kinase Tracer 178 / Eu-Anti-GST antibody TR-FRET)
Conditions: ATP binding site of MYT1, 30 minutes at room temperature

Chain of MYT1 protein (Q99640 whole entry): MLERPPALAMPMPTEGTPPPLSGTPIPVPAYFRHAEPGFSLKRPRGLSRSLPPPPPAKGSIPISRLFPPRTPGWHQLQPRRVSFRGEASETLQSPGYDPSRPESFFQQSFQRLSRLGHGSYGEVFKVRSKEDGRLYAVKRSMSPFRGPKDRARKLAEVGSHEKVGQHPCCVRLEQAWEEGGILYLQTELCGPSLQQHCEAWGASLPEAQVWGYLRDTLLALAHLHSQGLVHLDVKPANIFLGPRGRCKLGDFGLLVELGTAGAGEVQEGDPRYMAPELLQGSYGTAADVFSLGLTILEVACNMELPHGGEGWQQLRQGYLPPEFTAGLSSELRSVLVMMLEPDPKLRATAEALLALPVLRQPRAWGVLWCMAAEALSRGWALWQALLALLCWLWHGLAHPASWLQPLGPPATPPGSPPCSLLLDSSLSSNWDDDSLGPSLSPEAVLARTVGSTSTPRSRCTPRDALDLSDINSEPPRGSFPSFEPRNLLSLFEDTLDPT

| SMILES | IC50 [nM] |
| --- | --- |
| Nc1c(-c2ccc(Cl)c3[nH]ncc23)c2cc(OC3CCC3)c(F)cc2[nH]c1=O [Compound A7, 3-Amino-4-(7-chloro-1H-indazol-4-yl)-6-cyclobutyloxy-7-fluoro-1H-quinolin-2-one] | 4.4 |
| Nc1c(-c2ccc(Cl)c3[nH]ncc23)c2ccc3ccccc3c2[nH]c1=O [Compound B44, 3-Amino-4-(7-chloro-1H-indazol-4-yl)-1H-benzo[h]quinolin-2-one] | 14 |
| Nc1c(-c2cccc3[nH]ccc23)c2cc(Cl)ccc2[nH]c1=O [Compound A53, 3-Amino-6-chloro-4-(1H-indol-4-yl)-1H-quinolin-2-one] | 980 |
| Cc1cc2c(-c3ccc(F)c4[nH]ncc34)c(N)c(=O)[nH]c2c2cc(Cl)ccc12 [Compound B12, 3-Amino-9-chloro-4-(7-fluoro-1H-indazol-4-yl)-6-methyl-1H-benzo[h]quinolin-2-one] | 20 |
| Nc1c(-c2ccc(Cl)c3[nH]ncc23)c2cc(O[C@H]3C[C@H](F)C3)c(Cl)cc2[nH]c1=O [Compound A11, 3-Amino-7-chloro-4-(7-chloro-1H-indazol-4-yl)-6-((1r,3r)-3-fluorocyclobutyl)oxy-1H-quinolin-2-one] | 3.9 |
| Nc1c(-c2cc[nH]c(=O)c2)c2cc(Cl)ccc2[nH]c1=O [Compound A68, 3-Amino-6-chloro-4-(2-oxo-1H-pyridin-4-yl)-1H-quinolin-2-one] | 8000 |

Next, values leading:

| IC50 [nM] | SMILES |
| --- | --- |
| 23 | Cc1ccc2c(n1)c(I)cc1c(-c3ccc(F)c4[nH]ncc34)c(N)c(=O)[nH]c12 [Compound C181, 3-Amino-4-(7-fluoro-1H-indazol-4-yl)-6-iodo-8-methyl-1H-1,7-phenanthrolin-2-one] |
| 10 | C=Cc1cc2c(-c3cc(F)c(F)c4[nH]ncc34)c(N)c(=O)[nH]c2c2cccnc12 [Compound C204, 3-Amino-4-(6,7-difluoro-1H-indazol-4-yl)-6-ethenyl-1H-1,7-phenanthrolin-2-one] |
| 37 | CCC(CC)c1cc2c(-c3ccc(F)c4[nH]ncc34)c(N)c(=O)[nH]c2c2cccnc12 [Compound C108, 3-Amino-4-(7-fluoro-1H-indazol-4-yl)-6-pentan-3-yl-1H-1,7-phenanthrolin-2-one] |
| 18 | CC1(c2cc3c(-c4ccc(F)c5[nH]ncc45)c(N)c(=O)[nH]c3c3cccnc23)CC1 [Compound C142, 3-Amino-4-(7-fluoro-1H-indazol-4-yl)-6-(1-methylcyclopropyl)-1H-1,7-phenanthrolin-2-one] |
| 0.85 | CCCOc1cc2c(-c3ccc(F)c4[nH]ncc34)c(N)c(=O)[nH]c2c2cccnc12 [Compound C60, 3-Amino-4-(7-fluoro-1H-indazol-4-yl)-6-propoxy-1H-1,7-phenanthrolin-2-one] |
| 18 | N#Cc1cc2c(-c3ccc(F)c4[nH]ncc34)c(N)c(=O)[nH]c2c2cccnc12 [Compound C87, 3-Amino-4-(7-fluoro-1H-indazol-4-yl)-2-oxo-1H-1,7-phenanthroline-6-carbonitrile] |
| 4.6 | Cc1cc2c(-c3ccc(F)c4[nH]ncc34)c(N)c(=O)[nH]c2c2ncccc12 [Compound D3, 3-Amino-4-(7-fluoro-1H-indazol-4-yl)-6-methyl-1H-1,10-phenanthrolin-2-one] |
| 5.3 | Nc1c(-c2ccc(F)c3[nH]ncc23)c2cc(Br)c3scnc3c2[nH]c1=O [Compound N1, 7-Amino-4-bromo-6-(7-fluoro-1H-indazol-4-yl)-9H-[1,3]thiazolo[5,4-h]quinolin-8-one] |
| 2.4 | Nc1c(-c2cc(F)c(F)c3[nH]ncc23)c2cc(-c3cccnc3)c3ncccc3c2[nH]c1=O [Compound C215, 3-Amino-4-(6,7-difluoro-1H-indazol-4-yl)-6-pyridin-3-yl-1H-1,7-phenanthrolin-2-one] |
| 1.9 | Nc1c(-c2c(F)ccc3[nH]ncc23)c2cc(C3CC3)c3ncccc3c2[nH]c1=O (atropisomer, axis not shown) [Compound C158, (S)-3-amino-6-cyclopropyl-4-(5-fluoro-1H-indazol-4-yl)-1H-1,7-phenanthrolin-2-one] |
